# How the values were obtained:
# [1] = system: CD19.CAR and GD2.CAR T cells; test: CAR-T cell proliferation (fold increase compared to control cells); assay type: cell-based, human
# Text: Plasmids encoding for 2nd generation CAR specific for CD19 (Lenti-EF1a-CD19(FMC63)-2nd-CAR(CD28)-EGFRt) or GD2 (Lenti-EF1a-GD2(14G2a)-2nd-CAR(CD28)-EGFRt) were purchased from Creative Biolabs. The CAR containing plasmids were engineered to co-express a shRNA targeting USP16. The shRNA sequences are: shUSP16 #1 5′-[…]-3′ (SEQ ID NO: 8) and shUSP16 #2 5′-[…]-3′ (SEQ ID NO: 9). Primary T cells were activated as described (Example 3), transduced with a lentivirus encoding for either a CD19.CAR or a GD2.CAR co-expressing shUSP16 #1, shUSP16 #2 or a scrambled shRNA (Control). Cells were cultured in IL-2 and sorted between days 6-13 for EGFRt. Briefly, cells were stained with biotin EGFR antibody (R&D) and magnetically sorted with anti-biotin or streptavidin conjugated beads (Miltenyi Biotec) using the LS columns (Miltenyi Biotec). The positive population was isolated and expanded in regular TC-treated plates or in G-Rex 6 well culture plate (Wilson Wolf). The G-Rex platform was used to achieve a rapid expansion of T cells for in vitro and in vivo applications.
# Primary T cells were activated as described (Example 3), transduced with a lentivirus encoding for either a CD19.CAR or a GD2.CAR co-expressing shUSP16 #1, shUSP16 #2 or a scrambled shRNA (Control). Cells were cultured in IL-2 and sorted between days 6-13 for EGFRt. Cells were plated post-sorting with a purity higher than 85% and counted every 2-4 days by Trypan Blue exclusion using Vi-CELL XR cell counter. Fifteen days post-activation both CD19.CAR and GD2.CAR T cells were collected, and qPCR was performed to verify downregulation of USP16 expression (FIG. 24) (fold change GD2.CAR (n=3): Control vs shUSP #1: 0.35, p<0.0001, and Control vs shUSP16 #2: 0.2452, p<0.0001, fold change CD19.CAR (n=4): Control vs shUSP #1: 0.2891, p<0.0001, and Control vs shUSP16 #2: 0.2566, p<0.0001). Proliferation was measured as fold increase compared to control cells at day 15 (FIG. 25).
# [2] = system: CDKN1A; test: qPCR of senescence marker CDKN1A; assay type: cell-based, human; details: for CDKN1A expression, fold change vs Control: day 15, n=4; for decrease of senescence marker CDKN1A (Ctrl vs shRNA): primary T cells, day 15
# Text: A new set of shRNAs were cloned into the pSIH backbone, where the shRNA expression is driven by the H1 promoter. The vector was also engineered to co-express GFP and Puromycin resistance through a T2A sequence. The new shRNA sequences were: shUSP16 #1 5′-[…]-3′ (SEQ ID NO: 8) and shUSP16 #2 5′-[…]-3′ (SEQ ID NO: 9). Primary T cells were activated as described (Example 3), transduced with a lentivirus encoding either a shUSP16 #1, shUSP16 #2 or a scrambled shRNA (Control) and cells were selected with puromycin at day 6. Between 1 and 1.25×10^6 cells were plated post-puromycin selection with a purity higher than 90% and counted every 2-4 days by Trypan Blue exclusion using Vi-CELL XR cell counter (Beckman Coulter). qPCR was performed to verify downregulation of USP16 expression (FIG. 14A) and the expression of the senescent marker CDKN1A (FIG. 14B) at day 15. Proliferation was measured as fold increased compared to shControl at day 15 post-activation. The experiment was repeated using primary T cells obtained from buffy coats of 3 different healthy donors.
# Primary T cells were activated as described (Example 3), transduced with a lentivirus encoding for either a CD19.CAR or a GD2.CAR co-expressing shUSP16 #1, shUSP16 #2 or a scrambled shRNA (Control). Fifteen days post-activation, T cells were collected and qPCR performed. TaqMan probes detecting CDKN1A, CDKN2A (FIGS. 26A and 26B) (fold change GD2.CAR (n=4): CDKN1A Control vs shUSP #1: 0.4360, p<0.0001, and Control vs shUSP16 #2: 3.036, p=0.004 respectively. Fold change CD19.CAR (n=4): CDKN2a, CDKN1A Control vs shUSP #1: 0.6906, p=0.0026; 0.7228, p=0.0297 and Control vs shUSP16 #2: 0.8385, p=0.2325; 0.7017, p=0.0021), TCF7, LEF1, and Axin-2 (FIGS. 27A and B) were analyzed in GD2.CAR and CD19.CAR-expressing cells, respectively. ACTB was used as internal control. (GD2.CAR (n=4) TCF7, LEF1 and Axin-2: Control vs shUSP #1: 1.914 p=0.0512; 1.795 p=0.0323; 3.269 p=0.15 and Control vs shUSP16 #2: 1.284 p=0.0494; 1.718 p=0.0586; 2.035p=0.235, respectively. Fold change CD19.CAR (n=4): TCF7, LEF1 and Axin-2: Control vs shUSP #1: 1.528, p=0.0277; 1.82, p=0.0449; 1.998, p=0.031 and Control vs shUSP16 #2: 1.18, p=0.2002; 1.579, p=0.0632; 1.261, p=0.2382). USP16 downregulation in CAR-T cells results in a decreased expression of senescence markers and an increase in the expression of genes associated with the activation/increased signaling of the WNT pathway, indicating its importance in delaying cellular senescence and increasing self-renewal.
Substance,"T cell expansion, fold change vs Control ([1]; CD19.CAR, day 15, n=4)","T cell expansion, fold change vs Control ([1]; GD2.CAR, day 15, n=3)","CDKN1A expression, fold change vs Control ([2]; CD19.CAR)","CDKN1A expression, fold change vs Control ([2]; GD2.CAR)",decrease of senescence marker CDKN1A (Ctrl vs shRNA) [2]
"shUSP16 #1: shRNA targeting USP16, 5′-GACTGTAAGACTGACAATAAA-3′ (SEQ ID NO: 8), pSIH backbone or co-expressed in CAR plasmid",2.259,2.147,0.7228,0.4360,23%
"shUSP16 #2: shRNA targeting USP16, 5′-TATATCAGTTCACCCGTAAT-3′ (SEQ ID NO: 9), pSIH backbone or co-expressed in CAR plasmid",3.036,3.036,0.7017,3.036,37%

# — patent US20210290680A1, “METHODS AND COMPOSITIONS FOR MODULATING CELLULAR AGING” (Dorian Therapeutics, Inc., priority 2019, published 2021)
